Here are results for 14 compounds from the SangsterLogP compilation.

Each structure is given as a SMILES string.

Regarding `CCC(=O)OC1OC2OC3(C)CCC4C(C)CCC(C1C)C24OO3` (centres undefined), the logP is 2.33.

In the case of `CC(C)OC1OC2OC3(C)CCC4C(C)CCC(C1C)C24OO3` (centres undefined), the logP came to 3.49.

On to `CC1CCC2C(C)C(OC(=O)C=Cc3ccccc3)OC3OC4(C)CCC1C32OO4` (centres undefined), for which the logP was 3.83.

Consider `CCO[C@H]1O[C@@H]2O[C@@]3(C)CC[C@H]4[C@H](C)CC[C@@H]([C@H]1C)[C@@]24OO3`, for which the logP came out at 3.29.

On to `CCOC(=O)OC1OC2OC3(C)CCC4C(C)CCC(C1C)C24OO3` (centres undefined), for which the logP was 2.37.

`CC1CCC2C(C)C(OCc3ccccc3)OC3OC4(C)CCC1C32OO4` (centres undefined) yielded a logP of 4.2.

With `CCCOC(=O)OC1OC2OC3(C)CCC4C(C)CCC(C1C)C24OO3` (centres undefined), the logP is 3.11.

`CCCC(=O)OC1OC2OC3(C)CCC4C(C)CCC(C1C)C24OO3` (centres undefined) displayed a logP of 2.99.

Turning to `CCCOC1OC2OC3(C)CCC4C(C)CCC(C1C)C24OO3` (centres undefined), the logP is 3.65.

For `CC1CCC2C(C)C(OC(=O)Oc3ccccc3)OC3OC4(C)CCC1C32OO4` (centres undefined), the logP came to 3.38.

With `CO[C@@H]1O[C@@H]2O[C@@]3(C)CC[C@H]4[C@H](C)CC[C@@H]([C@H]1C)[C@@]24OO3` (relative stereo), the logP is 2.86.

In the case of `COCCOCCOC1OC2OC3(C)CCC4C(C)CCC(C1C)C24OO3` (centres undefined), the logP came out at 3.51.

With `CC(=O)OC1OC2OC3(C)CCC4C(C)CCC(C1C)C24OO3` (centres undefined), the logP is 2.08.

The compound `CC(C)CCOC1OC2OC3(C)CCC4C(C)CCC(C1C)C24OO3` (centres undefined) yielded a logP of 4.07.
